In patent publication US9919027B2, “Lipid nanoparticle of polymyxin” (priority 2013, dated 2018):

Tests used:
H441 cell line = test: Cell viability IC50 (CCK-8) as toxicity marker, H441; type: cell-based, human; conditions: 24 h incubation, triplicate
Method: (§1) The median inhibition concentration value (IC50) refers to the concentration of an assayed sample required to inhibit the growth of the 50% of the cell population. In this case IC50 value was estimated as a toxicity marker, as the cell viability assay is run under human cell (A549 and H441 cell lines, which are immortalised lines derived from human adenocarcinomic epithelial cell). Cells (at a density of 12,000 cells per well in a 96-well plate) were grown in Dulbecco's Modified Eagle Medium (DMEM) supplemented with 10% foetal bovine serum (FBS), 1% L-glutamine, 1% penicillin/streptomycin solution and 1% of Minimum Essential Medium non-essential amino acids 100× (MEM-NEAA) at 37° C. and 5% CO2 for 24 hours. Decreasing concentrations of nanoparticles 1b and 2b and free colistimethate sodium, starting from 10 mg/ml to 0.07812 mg/ml were added to the cells, diluted in DMEM supplemented with 0.5% serum and incubated at 37°±2° C. and 5% CO2 for 24 h. Cell viability was assessed by means of the Cell Counting Kit 8 after a washing step. With this aim, 10% of CCK-8 reagent was added to each well and incubated in a wet chamber for 4 hours at 37°±2° C. and 5% CO2. Subsequently, the absorbance was read at 450 nm and at 650 nm as the reference wavelength. The absorbance was directly proportional to the number of living cells in culture. […]

[1] = system: 31 P. aeruginosa strains obtained from 31 patients with cystic fibrosis; test: In vitro minimum inhibitory concentration (MIC) in MHBCA broth; type: cell-based; conditions: 24 hours at 37° C.
Method: The antibacterial action of an antibiotic can be measured by means of the minimum inhibitory concentration, which consists of the concentration of the antibiotic required to prevent bacterial growth after the incubation of 10^4-5 bacteria in rapid growth phase, in an aerobic, protein-free medium with pH 7.2 for an incubation period of one night. This term is used to determine the sensitivity of the bacteria to a specific antibiotic agent.
100 μl of a concentration of 10^4 Colony Forming Units (CFU)/ml of 31 P. aeruginosa strains obtained from 31 patients with cystic fibrosis, 13 strains of which were mucus producers, were incubated for 24 hours at 37° C. in a Mueller Hinton broth, cation-adjusted (MHBCA) medium, corresponding to between 20 mg and 25 mg per liter of calcium and between 10 mg and 12.5 mg per liter of magnesium, assuring the reproducibility of the results for P. aeruginosa, in the presence of colistimethate sodium, and nanoparticles obtained according to Examples 1b and 2b, at different concentrations (less than 0.25, 0.25, 0.5, 1, 2, 4, 8 and 32 μg/ml).

[2] = system: mucosa producing P. aeruginosa strain; test: In vivo efficacy in CD1 mice with pulmonary infection, lung bacteria count; conditions: infected CD1 mice; intratracheal, once a day for three days; 3000 IU (0.24 mg colistimethate sodium equivalent)
Method: To carry out the in vivo toxicity and efficacy assays of the nanoparticles of the present invention, it was necessary to establish a rodent infection model. An intratracheal administration of different concentrations of mucosa producing P. aeruginosa included in microspheres (Concentration 1: 5×10^4 CFU, Concentration 2: 2.4×10^7 CFU, and Concentration 3: 3.89×10^10), obtained from a patient with cystic fibrosis, suspended in PBS, in CD1 mice was carried out, administering a different concentration to each rodent, to establish the optimum concentration for generating a suitable pulmonary infection, capable of making the rodents sick without causing their immediate death.
Five mice were used as the control group and 64 mice infected with the inoculation of the bacteria of a mucosa producing P. aeruginosa strain, at a concentration of 2.4×10^7 CFU, as explained in Example 8, were used. […] The amounts were calculated by adjusting the dose recommended in humans with respect to the weight of the mice (3000 IU, equivalent to 0.24 mg of free colistimethate sodium, equivalent to 2.88 mg of the nanoparticles according to Example 1b and 2.52 mg of nanoparticles according to Example 2b). […]

A549 cell line = test: Cell viability IC50 (CCK-8) as toxicity marker, A549; type: cell-based, human; conditions: 24 h incubation, triplicate
Method: as §1

colistimethate sodium
IC50 (median inhibition concentration, cell viability) (H441 cell line): 6.58 ± 0.72 mg/L | MIC ([1]; obtained for 16% of the 31 strains): 0.5 mg/L | MIC ([1]; obtained for 25% of the 31 strains): 1 mg/L | MIC ([1]; obtained for 48% of the 31 strains): 2 mg/L | MIC ([1]; obtained for the remaining strains): 4 mg/L | Bacterial count (log CFU for every 2 lungs) [2]: 4.9 ± 0.2 log CFU for every 2 lungs | IC50 (median inhibition concentration, cell viability) (A549 cell line): 101.27 ± 14.44 mg/L
